Experimental data taken from PubChem BioAssay (NCI).
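Briefly, cells in 96-well plates were exposed to five compound concentrations for 48 h, and endpoints were estimated by linear interpolation. The concentration for full growth arrest is given as TGI.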

Legend:
Test in all cases: NCI tumour cell line growth inhibition, 48 h
BT-549 breast = tested on: BT-549 breast
ACHN renal = tested on: ACHN renal
SN12C renal = tested on: SN12C renal
COLO 205 colon = tested on: COLO 205 colon
NCI-H460 lung = tested on: NCI-H460 lung
HCC-2998 colon = tested on: HCC-2998 colon
OVCAR-3 ovarian = tested on: OVCAR-3 ovarian
786-0 renal = tested on: 786-0 renal
M14 melanoma = tested on: M14 melanoma
SF-268 CNS = tested on: SF-268 CNS
HT29 colon = tested on: HT29 colon
RPMI-8226 leukemia = tested on: RPMI-8226 leukemia
NCI/ADR-RES ovarian = tested on: NCI/ADR-RES ovarian
PC-3 prostate = tested on: PC-3 prostate
UACC-62 melanoma = tested on: UACC-62 melanoma
HCT-15 colon = tested on: HCT-15 colon
HOP-92 NSCLC = tested on: HOP-92 NSCLC
MCF7 breast = tested on: MCF7 breast
DU-145 prostate = tested on: DU-145 prostate

SMILES	TGI (BT-549 breast) [µM]	TGI (ACHN renal) [µM]	TGI (SN12C renal) [µM]	TGI (COLO 205 colon) [µM]	TGI (NCI-H460 lung) [µM]	TGI (HCC-2998 colon) [µM]	TGI (OVCAR-3 ovarian) [µM]	TGI (786-0 renal) [µM]	TGI (M14 melanoma) [µM]	TGI (SF-268 CNS) [µM]	TGI (HT29 colon) [µM]	TGI (RPMI-8226 leukemia) [µM]	TGI (NCI/ADR-RES ovarian) [µM]	TGI (PC-3 prostate) [µM]	TGI (UACC-62 melanoma) [µM]	TGI (HCT-15 colon) [µM]	TGI (HOP-92 NSCLC) [µM]	TGI (MCF7 breast) [µM]	TGI (DU-145 prostate) [µM]
COc1ccc(-c2c(C#N)c(-c3ccc(C)cc3)n(NS(=O)(=O)c3ccccc3)c(=O)c2C#N)cc1	> 100	> 100	> 100	> 100	> 100	> 100	> 100	> 100	> 100	> 100	> 100	39.4	> 100	> 100	> 100	> 100	> 100	> 100	–
COC(=O)C[C@@H]1C(C)(C)[C@@H]2O[C@@]34C[C@@H]2C(=O)[C@]1(C)[C@H]3CC[C@@]1(C)[C@H](c2ccoc2)OC(=O)C[C@]14O	> 100	> 100	> 100	> 100	> 100	–	> 100	> 100	> 100	> 100	> 100	> 100	> 100	> 100	> 100	> 100	> 100	> 100	> 100
C=C(C)CC1=C(OCC)C(OC)(OCC)C1=O (configuration not stated)	> 100	> 100	> 100	> 100	> 100	–	> 100	> 100	> 100	> 100	> 100	–	> 100	> 100	> 100	> 100	> 100	> 100	> 100
CC(=O)OCCCCn1cnc2nc(Nc3ccccc3)nc(Cl)c21	> 100	> 100	> 100	> 100	> 100	> 100	> 100	> 100	> 100	> 100	> 100	> 100	> 100	> 100	> 100	> 100	> 100	> 100	–
CCOC(=O)n1[nH]c(=O)n(-c2ccccc2)c1=O	> 100	> 100	> 100	> 100	> 100	> 100	> 100	> 100	> 100	> 100	> 100	> 100	> 100	> 100	> 100	> 100	–	> 100	> 100
OCC1OC(Oc2cc(O)cc(/C=C\c3ccc(O)cc3)c2)C(O)C(O)C1O (configuration not stated)	> 100	> 100	> 100	–	> 100	–	> 100	> 100	–	–	> 100	> 100	> 100	> 100	> 100	> 100	> 100	> 100	> 100
Cc1ccc(OCC2OC(C#N)C(Oc3ccc(C)cc3)C2Oc2ccc(C)cc2)cc1 (configuration not stated)	> 100	–	> 100	> 100	> 100	> 100	> 100	> 100	> 100	> 100	> 100	> 100	> 100	> 100	> 100	> 100	–	> 100	> 100
CN(/N=C/c1cccs1)c1ccc(Cl)cc1[N+](=O)[O-]	> 100	> 100	> 100	–	> 100	> 100	> 100	> 100	> 100	> 100	> 100	> 100	66.7	> 100	> 100	> 100	–	> 100	> 100
CN(c1ccccc1)S(=O)(=O)c1ccccc1[N+](=O)[O-]	> 100	> 100	> 100	> 100	> 100	> 100	> 100	> 100	> 100	> 100	> 100	> 100	> 100	> 100	> 100	> 100	–	> 100	> 100
Oc1c2cc(Br)cc1CCc1cc(Br)cc(c1O)CC2	73.1	> 100	> 100	27.7	39.4	32.9	48.8	> 100	36.7	> 100	35.9	> 100	57.2	55.8	46	80.7	–	46.2	> 100
COc1ccccc1C(C1=C(O)COC1=O)c1cc2c(cc1OC(C)=O)OCO2 (configuration not stated)	> 100	> 100	> 100	> 100	> 100	> 100	> 100	> 100	> 100	> 100	> 100	> 100	> 100	> 100	> 100	> 100	–	> 100	> 100
